Test results taken from ChEMBL document CHEMBL1201862, “PubChem BioAssay data set” (2004).
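Results reflect a 48-hour exposure of cells in 96-well plates to compound at five concentrations. The concentration for 50% growth inhibition is given as GI50.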 Activity calls are given as the source filed them. No stated cut-off is given here; in the data, active = GI50 up to about 1.1 µM and inactive = higher.

Tests used:
Assay in all cases: growth of human tumour cells (NCI), 48 h
[1] = system: DLD-1
[2] = system: HT-29
[3] = system: K562
[4] = system: ACHN
[5] = system: RPMI-8226
[6] = system: Malme-3M
[7] = system: CCRF-CEM
[8] = system: KM12
[9] = system: SF-539
[10] = system: OVCAR-8
[11] = system: DMS-273
[12] = system: SR
[13] = system: HL-60
[14] = system: HCT-15
[15] = system: SK-MEL-28
[16] = system: IGROV-1
[17] = system: UACC-62
[18] = system: MOLT-4
[19] = system: SN12C
[20] = system: HOP-62
[21] = system: SW-620
[22] = system: NCI-H23
[23] = system: NCI-H522
[24] = system: A549
[25] = system: HCC 2998
[26] = system: LOX IMVI
[27] = system: UO-31
[28] = system: SNB-78
[29] = system: LXFL 529
[30] = system: UACC-257
[31] = system: KM-20L2
[32] = system: TK-10
[33] = system: M19-MEL
[34] = system: EKVX
[35] = system: SNB-75
[36] = system: 786-0
[37] = system: COLO 205
[38] = system: SK-OV-3
[39] = system: SNB-19
[40] = system: NCI-H460
[41] = system: M14
[42] = system: U-251
[43] = system: A498
[44] = system: MDA-N
[45] = system: OVCAR-5
[46] = system: DU-145
[47] = system: HCT-116
[48] = system: CAKI-1
[49] = system: SF-295
[50] = system: MCF7
[51] = system: OVCAR-4
[52] = system: BT-549
[53] = system: NCI-H226
[54] = system: NCI/ADR-RES
[55] = system: PC-3
[56] = system: HOP-92
[57] = system: MDA-MB-231
[58] = system: T47D
[59] = system: SK-MEL-5
[60] = system: Hs-578T
[61] = system: SK-MEL-2
[62] = system: RXF 393
[63] = system: OVCAR-3
[64] = system: MDA-MB-435
[65] = system: SF-268
[66] = system: HOP-18
[67] = system: DMS-114

COc1cccc(-c2cc(O)c3cc(OC)c(OC)cc3n2)c1
GI50 [1]: 42.3 µM (inactive)
GI50 [2]: 20.1 µM (inactive)
GI50 [3]: 40.3 µM (inactive)
GI50 [4]: > 100 µM (inactive)
GI50 [5]: 45.3 µM (inactive)
GI50 [6]: 35.7 µM (inactive)
GI50 [7]: 31.8 µM (inactive)
GI50 [8]: 24.2 µM (inactive)
GI50 [9]: 26.4 µM (inactive)
GI50 [10]: 45.2 µM (inactive)
GI50 [11]: 36.3 µM (inactive)
GI50 [12]: 56.1 µM (inactive)
GI50 [13]: 33.1 µM (inactive)
GI50 [14]: 52.6 µM
GI50 [15]: > 100 µM (inactive)
GI50 [16]: 89.3 µM (inactive)
GI50 [17]: 43.6 µM (inactive)
GI50 [18]: 40.6 µM (inactive)
GI50 [19]: 68.7 µM (inactive)
GI50 [20]: 42.1 µM (inactive)
GI50 [21]: 32 µM (inactive)
GI50 [22]: 41.1 µM (inactive)
GI50 [23]: 19.8 µM (inactive)
GI50 [24]: 47.4 µM (inactive)
GI50 [25]: 87.1 µM (inactive)
GI50 [26]: 64.7 µM (inactive)
GI50 [27]: 41.6 µM (inactive)
GI50 [28]: 29.9 µM (inactive)
GI50 [29]: 63.1 µM (inactive)
GI50 [30]: 28.9 µM (inactive)
GI50 [31]: 26.6 µM (inactive)
GI50 [32]: 51.6 µM (inactive)
GI50 [33]: 59.8 µM (inactive)
GI50 [34]: 97.7 µM (inactive)
GI50 [35]: 34.8 µM (inactive)
GI50 [36]: 46.6 µM (inactive)
GI50 [37]: 39.3 µM (inactive)
GI50 [38]: 87.3 µM (inactive)
GI50 [39]: 58.2 µM (inactive)
GI50 [40]: 30.3 µM (inactive)
GI50 [41]: 37.9 µM (inactive)
GI50 [42]: 60.5 µM (inactive)

O=C1c2c(F)c(F)c(F)c(F)c2SC2=NCCN12
GI50 [2]: 3.18 µM (inactive)
GI50 [3]: 2.1 µM (inactive)
GI50 [43]: 18.4 µM (inactive)
GI50 [4]: 8.41 µM (inactive)
GI50 [44]: 3.45 µM (inactive)
GI50 [5]: 4 µM (inactive)
GI50 [45]: 15.4 µM (inactive)
GI50 [6]: 5.65 µM (inactive)
GI50 [46]: 17.3 µM (inactive)
GI50 [47]: 2.15 µM (inactive)
GI50 [7]: 2.39 µM (inactive)
GI50 [8]: 12.6 µM (inactive)
GI50 [9]: 16.3 µM (inactive)
GI50 [48]: 3.1 µM (inactive)
GI50 [10]: 11.5 µM (inactive)
GI50 [49]: 17.5 µM (inactive)
GI50 [12]: 1.15 µM (inactive)
GI50 [13]: 2.19 µM (inactive)
GI50 [50]: 8.15 µM (inactive)
GI50 [14]: 2.81 µM
GI50 [51]: 3.12 µM (inactive)
GI50 [15]: 9.38 µM (inactive)
GI50 [52]: 14.8 µM (inactive)
GI50 [16]: 7.19 µM (inactive)
GI50 [17]: 5.04 µM (inactive)
GI50 [53]: 16.2 µM (inactive)
GI50 [54]: 10.4 µM (inactive)
GI50 [55]: 13.6 µM (inactive)
GI50 [18]: 2.24 µM (inactive)
GI50 [19]: 9.25 µM (inactive)
GI50 [20]: 18.1 µM (inactive)
GI50 [56]: 3.78 µM (inactive)
GI50 [21]: 2.38 µM (inactive)
GI50 [22]: 5.42 µM (inactive)
GI50 [57]: 8.75 µM (inactive)
GI50 [23]: 2.82 µM (inactive)
GI50 [24]: 14.7 µM (inactive)
GI50 [58]: 12.5 µM (inactive)
GI50 [25]: 14.5 µM (inactive)
GI50 [26]: 1.61 µM (inactive)
GI50 [59]: 14.8 µM (inactive)
GI50 [27]: 10.1 µM (inactive)
GI50 [60]: 14.2 µM (inactive)
GI50 [61]: 1.84 µM (inactive)
GI50 [30]: 8.57 µM (inactive)
GI50 [32]: 8.69 µM (inactive)
GI50 [62]: 2.47 µM (inactive)
GI50 [34]: 19.3 µM (inactive)
GI50 [35]: 16 µM (inactive)
GI50 [36]: 7.26 µM (inactive)
GI50 [37]: 7.23 µM (inactive)
GI50 [38]: 15.3 µM (inactive)
GI50 [39]: 15.3 µM (inactive)
GI50 [40]: 6.53 µM (inactive)
GI50 [63]: 4.91 µM (inactive)
GI50 [64]: 2.85 µM (inactive)
GI50 [41]: 4.53 µM (inactive)
GI50 [42]: 8.87 µM (inactive)
GI50 [65]: 12.8 µM (inactive)

CCCCCc1c(CCCC)c(=O)[nH]c2cc(CNCC(OC)OC)ccc12
GI50 [2]: 3.91 µM (inactive)
GI50 [3]: 1.9 µM (inactive)
GI50 [43]: 15.1 µM (inactive)
GI50 [4]: 14.4 µM (inactive)
GI50 [44]: 11.7 µM (inactive)
GI50 [5]: 4.08 µM (inactive)
GI50 [45]: 14.2 µM (inactive)
GI50 [6]: 2.83 µM (inactive)
GI50 [46]: 14.6 µM (inactive)
GI50 [47]: 7.11 µM (inactive)
GI50 [7]: 4.05 µM (inactive)
GI50 [8]: 11.7 µM (inactive)
GI50 [9]: 14.8 µM (inactive)
GI50 [48]: 10.9 µM (inactive)
GI50 [10]: 16.3 µM (inactive)
GI50 [49]: 17.2 µM (inactive)
GI50 [12]: 6.9 µM (inactive)
GI50 [13]: 6 µM (inactive)
GI50 [50]: 12.9 µM (inactive)
GI50 [14]: 9.53 µM
GI50 [51]: 14.7 µM (inactive)
GI50 [15]: 5.71 µM (inactive)
GI50 [52]: 14.8 µM (inactive)
GI50 [16]: 14.9 µM (inactive)
GI50 [17]: 5.85 µM (inactive)
GI50 [53]: 20.6 µM (inactive)
GI50 [54]: 12.4 µM (inactive)
GI50 [55]: 12.2 µM (inactive)
GI50 [18]: 5.33 µM (inactive)
GI50 [19]: 14.2 µM (inactive)
GI50 [20]: 18.2 µM (inactive)
GI50 [56]: 7.41 µM (inactive)
GI50 [21]: 5.79 µM (inactive)
GI50 [22]: 17.4 µM (inactive)
GI50 [57]: 15.2 µM (inactive)
GI50 [23]: 17.6 µM (inactive)
GI50 [24]: 12.6 µM (inactive)
GI50 [58]: 15.5 µM (inactive)
GI50 [25]: 3.24 µM (inactive)
GI50 [26]: 6.01 µM (inactive)
GI50 [59]: 8.77 µM (inactive)
GI50 [27]: 13.2 µM (inactive)
GI50 [60]: 18.5 µM (inactive)
GI50 [61]: 11.7 µM (inactive)
GI50 [30]: 4.92 µM (inactive)
GI50 [32]: 15 µM (inactive)
GI50 [62]: 12 µM (inactive)
GI50 [34]: 16.2 µM (inactive)
GI50 [35]: 15.6 µM (inactive)
GI50 [36]: 4.47 µM (inactive)
GI50 [37]: 2.41 µM (inactive)
GI50 [38]: 18.1 µM (inactive)
GI50 [39]: 12.8 µM (inactive)
GI50 [40]: 10.5 µM (inactive)
GI50 [63]: 17.3 µM (inactive)
GI50 [64]: 11.4 µM (inactive)
GI50 [41]: 2.81 µM (inactive)
GI50 [42]: 10.8 µM (inactive)
GI50 [65]: 16.7 µM (inactive)

COc1cc(-c2c(C)c(C)nc(OC)c2C#N)cc(OC)c1OC
GI50 [1]: > 100 µM (inactive)
GI50 [2]: > 100 µM (inactive)
GI50 [3]: 58.7 µM (inactive)
GI50 [43]: > 100 µM (inactive)
GI50 [4]: > 100 µM (inactive)
GI50 [5]: 37.4 µM (inactive)
GI50 [6]: > 100 µM (inactive)
GI50 [47]: > 100 µM (inactive)
GI50 [7]: > 100 µM (inactive)
GI50 [8]: > 100 µM (inactive)
GI50 [9]: > 100 µM (inactive)
GI50 [10]: > 100 µM (inactive)
GI50 [49]: 53.6 µM (inactive)
GI50 [13]: 24.4 µM (inactive)
GI50 [14]: > 100 µM
GI50 [51]: 61 µM (inactive)
GI50 [15]: > 100 µM (inactive)
GI50 [16]: > 100 µM (inactive)
GI50 [17]: 40.6 µM (inactive)
GI50 [53]: 24.9 µM (inactive)
GI50 [18]: 39.9 µM (inactive)
GI50 [19]: > 100 µM (inactive)
GI50 [20]: > 100 µM (inactive)
GI50 [56]: 21.3 µM (inactive)
GI50 [21]: > 100 µM (inactive)
GI50 [22]: > 100 µM (inactive)
GI50 [66]: 46.1 µM (inactive)
GI50 [24]: > 100 µM (inactive)
GI50 [25]: > 100 µM (inactive)
GI50 [59]: > 100 µM (inactive)
GI50 [27]: 31.5 µM (inactive)
GI50 [28]: 92 µM (inactive)
GI50 [29]: 41.9 µM (inactive)
GI50 [61]: > 100 µM (inactive)
GI50 [30]: 82.2 µM (inactive)
GI50 [31]: > 100 µM (inactive)
GI50 [32]: > 100 µM (inactive)
GI50 [62]: 44.2 µM (inactive)
GI50 [33]: > 100 µM (inactive)
GI50 [34]: > 100 µM (inactive)
GI50 [35]: 44.2 µM (inactive)
GI50 [36]: > 100 µM (inactive)
GI50 [37]: > 100 µM (inactive)
GI50 [38]: > 100 µM (inactive)
GI50 [39]: > 100 µM (inactive)
GI50 [40]: > 100 µM (inactive)
GI50 [67]: 49.8 µM (inactive)
GI50 [63]: > 100 µM (inactive)
GI50 [41]: > 100 µM (inactive)
GI50 [42]: > 100 µM (inactive)
GI50 [65]: > 100 µM (inactive)
